Assays:
Phytophthora infestans = assay: whole plant or invertebrate; type: in vivo; conditions: in Solanum lycopersicum, foliar, read-out: inhibit fungal infestation (percent disease control compared to untreated)
Plasmopara viticola = Plasmopara viticola / grape / leaf disc preventative; type: in vivo; conditions: foliar, grape vine leaf disks, inoculated 1 day after application, assessed 6-8 days after application, read-out: inhibit fungal infestation (percent disease control compared to untreated)
Procedure: (§1) Leaf disks of various plant species (diameter 14 mm) are cut from plants grown in the greenhouse. The cut leaf disks are placed in multiwell plates (24-well format) onto water agar. Immediately after cutting the leaf disks are sprayed with a test solution.
(§2) Compounds to be tested are prepared as DMSO solutions (max. 10 mg/ml). Just before spraying the solutions are diluted to the appropriate concentrations with 0.025% Tween20. After drying, the leaf disks are inoculated with a spore suspension of the appropriate pathogenic fungus.
(§3) After an incubation time of 3-7 days after inoculation at defined conditions (temp, rH, light, etc.) according to the respective test system, the activity of the test compound is assessed as antifungal activity.
Grape vine leaf disks are placed on water agar in multiwell plates (24-well format) and sprayed with the formulated test compound diluted in water. The leaf disks are inoculated with a spore suspension of the fungus 1 day after application. The inoculated leaf disks are incubated at 19° C. and 80% rh under a light regime of 12 h light/12 h darkness in a climate cabinet and the activity of a compound is assessed as percent disease control compared to untreated when an appropriate level of disease damage appears in untreated check leaf disks (6-8 days after application).

[1] = system: Blumeria graminis f. sp. tritici (Erysiphe graminis f. sp. tritici); assay: Blumeria graminis f. sp. tritici / wheat / leaf disc preventative (powdery mildew on wheat); type: in vivo; conditions: foliar, wheat leaf segments cv. Kanzler, inoculated 1 day after application, assessed 6-8 days after application, read-out: inhibit fungal infestation (percent disease control compared to untreated)
Procedure: as §1, §2, §3
Wheat leaf segments cv. Kanzler are placed on agar in a multiwell plate (24-well format) and sprayed with the formulated test compound diluted in water. The leaf disks are inoculated by shaking powdery mildew infected plants above the test plates 1 day after application. The inoculated leaf disks are incubated at 20° C. and 60% rh under a light regime of 24 h darkness followed by 12 h light/12 h darkness in a climate chamber and the activity of a compound is assessed as percent disease control compared to untreated when an appropriate level of disease damage appears on untreated check leaf segments (6-8 days after application).

Pythium ultimum = Pythium ultimum / liquid culture (seedling damping off); type: cell-based; conditions: Globisporangium ultimum, liquid culture in PDB, 24° C., 2-3 days after application, read-out: inhibit fungal infestation (inhibition of growth determined photometrically)
Procedure: Mycelia fragments or conidia suspensions of a fungus, prepared either freshly from liquid cultures of the fungus or from cryogenic storage, are directly mixed into nutrient broth. DMSO solutions of the test compound (max. 10 mg/ml) is diluted with 0.025% Tween20 by factor 50 and 10 μl of this solution is pipetted into a microtiter plate (96-well format) and the nutrient broth containing the fungal spores/mycelia fragments is then added to give an end concentration of the tested compound. The test plates are incubated at 24° C. and 96% rH in the dark. The inhibition of fungal growth is determined photometrically after 2-6 days and antifungal activity is calculated.
Mycelia fragments and oospores of a newly grown liquid culture of the fungus are directly mixed into nutrient broth (PDB potato dextrose broth). After placing a (DMSO) solution of test compound into a microtiter plate (96-well format), the nutrient broth containing the fungal mycelia/spore mixture is added. The test plates are incubated at 24° C. and the inhibition of growth is determined photometrically 2-3 days after application.

[2] = system: Phaeosphaeria nodorum (Septoria nodorum); assay: Phaeosphaeria nodorum (Septoria nodorum) / wheat / leaf disc preventative (glume blotch); type: in vivo; conditions: Parastagonospora nodorum, foliar, wheat leaf segments cv. Kanzler, inoculated 2 days after application, assessed 5-7 days after application, read-out: inhibit fungal infestation (percent disease control compared to untreated)
Procedure: as §1, §2, §3
Wheat leaf segments cv. Kanzler are placed on agar in a multiwell plate (24-well format) and sprayed with the formulated test compound diluted in water. The leaf disks are inoculated with a spore suspension of the fungus 2 days after application. The inoculated test leaf disks are incubated at 20° C. and 75% rh under a light regime of 12 h light/12 h darkness in a climate cabinet and the activity of a compound is assessed as percent disease control compared to untreated when an appropriate level of disease damage appears in untreated check leaf disks (5-7 days after application).

Row | Structure (SMILES) | inhibition at 200 ppm (Phytophthora infestans) | inhibition at 200 ppm (Plasmopara viticola) | inhibition at 200 ppm [1] | inhibition at 200 ppm (Pythium ultimum) | melting point | inhibition at 200 ppm [2]
1 | C#CC(C)(C)NC(=O)C(Oc1ccc2ncc(C)cc2c1)SC (stereo not shown) [Compound 2, N-(1,1-Dimethyl-prop-2-ynyl)-2-(3-methyl-quinolin-6-yloxy)-2-methylsulfanyl-acetamide] | ≥ 80% | ≥ 80% | ≥ 80% | ≥ 80% | 132 to 134 °C | 
2 | CC#CC(C)(C)NC(=O)C(Oc1ccc2ncc(C)cc2c1)SC (stereo not shown) [Compound 3, N-(1,1-Dimethyl-but-2-ynyl)-2-(3-methyl-quinolin-6-yloxy)-2-methylsulfanyl-acetamide] | ≥ 80% | ≥ 80% | ≥ 80% | ≥ 80% | 128 to 129 °C | 
3 | CSC(Oc1cc(C)c2ncc(C)cc2c1)C(=O)NC(C)(C)C (stereo not shown) [Compound 6, N-tert-Butyl-2-(3,8-dimethyl-quinolin-6-yloxy)-2-methylsulfanyl-acetamide] | ≥ 80% | ≥ 80% | ≥ 80% | ≥ 80% | 126 to 127 °C | 
4 | COCC#CC(C)(C)NC(=O)C(Oc1cc(C)c2ncc(C)cc2c1)SC (stereo not shown) [Compound 7, 2-(3,8-Dimethyl-quinolin-6-yloxy)-N-(4-methoxy-1,1-dimethyl-but-2-ynyl)-2-methylsulfanyl-acetamide] | ≥ 80% | ≥ 80% | ≥ 80% | ≥ 80% | 124 to 126 °C | 
5 | CO/N=C/C(C)(C)NC(=O)C(Oc1cc(C)c2ncc(C)cc2c1)SC (stereo not shown) [Compound 8, 2-(3,8-Dimethyl-quinolin-6-yloxy)-N-(2-methoxyimino-1,1-dimethyl-ethyl)-2-methylsulfanyl-acetamide] | ≥ 80% | ≥ 80% | ≥ 80% | ≥ 80% | 109 to 111 °C | ≥ 80%
6 | CSC(Oc1cc(C)c2ncc(C)cc2c1)C(=O)NC1(C)CCC1 (stereo not shown) [Compound 9, 2-(3,8-Dimethyl-quinolin-6-yloxy)-N-(1-methyl-cyclobutyl)-2-methylsulfanyl-acetamide] | ≥ 80% | ≥ 80% | ≥ 80% | ≥ 80% | 150 to 151 °C | 
7 | C#CC(C)(COC)NC(=O)C(Oc1cc(C)c2ncc(C)cc2c1)SC (stereo not shown) [Compound 10, 2-(3,8-Dimethyl-quinolin-6-yloxy)-N-(1-methoxymethyl-1-methyl-prop-2-ynyl)-2-methylsulfanyl-acetamide] | ≥ 80% |  | ≥ 80% | ≥ 80% | 119 to 120 °C | ≥ 80%
8 | CO/N=C/C(C)(C)NC(=O)C(Oc1ccc2ncc(C)cc2c1)SC (stereo not shown) [Compound 12, N-(2-Methoxyimino-1,1-dimethyl-ethyl)-2-(3-methyl-quinolin-6-yloxy)-2-methylsulfanyl-acetamide] | ≥ 80% | ≥ 80% | ≥ 80% | ≥ 80% | 130 to 132 °C | 
9 | CC#CC(C)(C)NC(=O)C(Oc1ccc2ncc(CC)cc2c1)SC (stereo not shown) [Compound 13, N-(1,1-Dimethyl-but-2-ynyl)-2-(3-ethyl-quinolin-6-yloxy)-2-methylsulfanyl-acetamide] | ≥ 80% | ≥ 80% | ≥ 80% | ≥ 80% | 133 to 134 °C | 
10 | CC#CC(C)(C)NC(=O)C(Oc1cc(F)c2ncc(CC)cc2c1)SC (stereo not shown) [Compound 15, N-(1,1-Dimethyl-but-2-ynyl)-2-(3-ethyl-8-fluoro-quinolin-6-yloxy)-2-methylsulfanyl-acetamide] | ≥ 80% | ≥ 80% | ≥ 80% | ≥ 80% | 151 to 153 °C | 
11 | CCc1cnc2c(C)cc(OC(SC)C(=O)NC(C)(C)C)cc2c1 (stereo not shown) [Compound 17, N-tert-Butyl-2-(3-ethyl-8-methyl-quinolin-6-yloxy)-2-methylsulfanyl-acetamide] | ≥ 80% | ≥ 80% |  | ≥ 80% | 153 to 154 °C | 
12 | CC#CC(C)(C)NC(=O)C(Oc1cc(C)c2ncc(CC)cc2c1)SC (stereo not shown) [Compound 19, N-(1,1-Dimethyl-but-2-ynyl)-2-(3-ethyl-8-methyl-quinolin-6-yloxy)-2-methylsulfanyl-acetamide] | ≥ 80% | ≥ 80% |  | ≥ 80% | 166 to 167 °C | 
13 | CCc1cnc2c(C)cc(OC(SC)C(=O)NC(C)(C)C#CCOC)cc2c1 (stereo not shown) [Compound 20, 2-(3-Ethyl-8-methyl-quinolin-6-yloxy)-N-(4-methoxy-1,1-dimethyl-but-2-ynyl)-2-methylsulfanyl-acetamide] | ≥ 80% | ≥ 80% |  | ≥ 80% | 137 to 138 °C | 
14 | CCc1cnc2c(C)cc(OC(SC)C(=O)NC3CCC3)cc2c1 (stereo not shown) [Compound 21, N-Cyclobutyl-2-(3-ethyl-8-methyl-quinolin-6-yloxy)-2-methylsulfanyl-acetamide] | ≥ 80% | ≥ 80% |  | ≥ 80% | 157 to 158 °C | 
15 | CCc1cnc2c(C)cc(OC(SC)C(=O)NC3(C)CCC3)cc2c1 (stereo not shown) [Compound 22, 2-(3-Ethyl-8-methyl-quinolin-6-yloxy)-N-(1-methyl-cyclobutyl)-2-methylsulfanyl-acetamide] | ≥ 80% | ≥ 80% |  | ≥ 80% | 150 to 151 °C | 
16 | CCc1cnc2c(Cl)cc(OC(SC)C(=O)NC(C)(C)/C=N/OC)cc2c1 (stereo not shown) [Compound 24, 2-(8-Chloro-3-ethyl-quinolin-6-yloxy)-N-(2-methoxyimino-1,1-dimethyl-ethyl)-2-methylsulfanyl-acetamide] | ≥ 80% | ≥ 80% | ≥ 80% | ≥ 80% | 142 to 144 °C | 
17 | C#CC(C)(C)NC(=O)C(Oc1cc(Cl)c2ncc(CC)cc2c1)SC (stereo not shown) [Compound 25, 2-(8-Chloro-3-ethyl-quinolin-6-yloxy)-N-(1,1-dimethyl-prop-2-ynyl)-2-methylsulfanyl-acetamide] | ≥ 80% | ≥ 80% |  |  | 149 to 151 °C | ≥ 80%
18 | CCc1cnc2c(Cl)cc(OC(SC)C(=O)NC(C)(C)C#CCOC)cc2c1 (stereo not shown) [Compound 27, 2-(8-Chloro-3-ethyl-quinolin-6-yloxy)-N-(4-methoxy-1,1-dimethyl-but-2-ynyl)-2-methylsulfanyl-acetamide] | ≥ 80% | ≥ 80% | ≥ 80% |  | 139 to 142 °C | 
19 | CCc1cnc2c(Cl)cc(OC(SC)C(=O)NC3(C)CCC3)cc2c1 (stereo not shown) [Compound 28, 2-(8-Chloro-3-ethyl-quinolin-6-yloxy)-N-(1-methyl-cyclobutyl)-2-methylsulfanyl-acetamide] |  | ≥ 80% | ≥ 80% | ≥ 80% | 148 to 150 °C | 

— patent publication US20130096156A1 (priority 2010, published 2013)
